Among the test systems are SNB-19; NCI-H522; SK-MEL-5; HT-29; OVCAR-5; SR; CCRF-CEM; NCI/ADR-RES; SK-MEL-28; 786-0; M14; T47D; PC-3; U-251; UACC-257; HCT-116; HOP-92; CAKI-1; RXF 393; NCI-H226.
Holding throughout (assay): NCI-60 cell line screen, 48 h

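Cells were grown in 96-well plates and exposed to each compound for 48 hours at five concentrations; endpoints were interpolated linearly between bracketing concentrations, or set to the highest concentration if not reached. Here, GI50 denotes the concentration required for 50% inhibition of growth.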 The source made the active and inactive calls. Cut-off read from the data, not from the text of the source: active = GI50 up to about 1.1 µM and inactive = higher.

Regarding `CCN(CC)CCC(=O)NC1c2ccc(Cl)cc2Oc2c(C)cccc21` (stereo not given), the GI50 in the test with SNB-19 was 14 µM (inactive); with NCI-H522 it was 17.1 µM (inactive); in the test with SK-MEL-5, 13.3 µM (inactive); in the test on HT-29, 12.9 µM (inactive); in the test on OVCAR-5 it was 15.6 µM (inactive); in the test on SR, 18.5 µM (inactive). Besides, the GI50 is 17.2 µM (inactive) in the test with CCRF-CEM; 16.8 µM (inactive) with NCI/ADR-RES; 14.6 µM (inactive) with SK-MEL-28; 12.6 µM (inactive) in the test on 786-0; 17.5 µM (inactive) in the test on M14; 14 µM (inactive) with T47D. Also, the GI50 was 13.2 µM (inactive) in the test on PC-3; > 10 µM (inactive) in the test with U-251; 17.1 µM (inactive) in the test on UACC-257; 16.3 µM (inactive) with HCT-116; 25.8 µM (inactive) with HOP-92.

Regarding `O=c1cc(CNC2CCCC2)[nH]c(=O)[nH]1`, the GI50 in the test on SNB-19, in the test with NCI-H522, in the test on SK-MEL-5, in the test on CAKI-1, in the test with HT-29 and with OVCAR-5 was > 100 µM (inactive) each time. In addition, the GI50 in the test on SR, with CCRF-CEM, in the test on NCI/ADR-RES, with SK-MEL-28, in the test on 786-0 and with M14 was > 100 µM (inactive) throughout. The GI50 in the test on T47D, in the test with RXF 393, in the test with PC-3, with U-251, with UACC-257 and with HCT-116 was > 100 µM (inactive) each time.

As to `Cc1ccc(CCCCCOc2ccc(C3=NCCO3)cc2)s1`, the GI50 in the test with SNB-19, in the test on NCI-H522, in the test with NCI-H226, with SK-MEL-5, with CAKI-1 and in the test with HT-29 was > 100 µM (inactive) in each case. Moreover, the GI50 in the test on OVCAR-5 was > 100 µM (inactive); in the test on SR, 2.84 µM (inactive); in the test with CCRF-CEM, > 100 µM (inactive); in the test on NCI/ADR-RES it was > 100 µM (inactive); with SK-MEL-28 it was > 100 µM (inactive); in the test on 786-0 it was > 100 µM (inactive). Further, the GI50 with M14, in the test with T47D, in the test with RXF 393, with PC-3, in the test with U-251 and in the test with UACC-257 was > 100 µM (inactive) in each case. Further, the GI50 in the test on HCT-116 was > 100 µM (inactive).

In the case of `CC[C@](C)(O)C(=O)O[C@H]1C(=O)O[C@@H]2C[C@H]3C(C)=CC(=O)[C@@H](O)[C@]3(C)[C@H]3[C@@]4(O)OC[C@]32[C@@H]1[C@@H](C)[C@H]4O` [GLAUCARUBINONE], the GI50 in the test on SNB-19 is 0.0933 µM (active); in the test with NCI-H226 it was 0.113 µM (active); with SK-MEL-5, 0.0442 µM (active); in the test on OVCAR-5, 0.658 µM (active); in the test on SR, 0.0453 µM (active); in the test with CCRF-CEM, 0.05 µM (active). Besides, the GI50 is 2.27 µM (inactive) in the test with NCI/ADR-RES; 0.05 µM (active) with SK-MEL-28; 0.146 µM (active) in the test on 786-0; 0.107 µM (active) with M14; 0.176 µM (active) in the test with T47D; 0.05 µM (active) with RXF 393. For the same compound, the GI50 with PC-3 was 0.458 µM (active); in the test with U-251, 0.05 µM (active); in the test on UACC-257 it was 0.0675 µM (active); in the test on HCT-116, 0.05 µM (active); with HOP-92 it was 0.049 µM (active).

Regarding `C#CCOCC12C=CC(O1)C1C(=O)N(C)C(=O)C12` (stereo not given), the GI50 with SNB-19, with NCI-H226, with SK-MEL-5, in the test on HT-29, in the test with OVCAR-5 and with SR was > 100 µM (inactive) throughout. For the same compound, the GI50 in the test with CCRF-CEM, in the test on NCI/ADR-RES, with SK-MEL-28, with 786-0, with M14 and in the test with T47D was > 100 µM (inactive) in each case. Besides, the GI50 in the test with RXF 393, in the test with PC-3, with U-251 and with HCT-116 was > 100 µM (inactive) each time.

In the case of `CCCC(C)c1c(Cl)nc(Cl)nc1Cl` (stereo not given), the GI50 with SNB-19 was 18.2 µM (inactive); in the test with NCI-H522, 1.13 µM (inactive); in the test on NCI-H226, 4.34 µM (inactive); with SK-MEL-5 it was 3.41 µM (inactive); in the test on HT-29, 11.4 µM (inactive); in the test on OVCAR-5, 21.2 µM (inactive). In addition, the GI50 with SR is 4.58 µM (inactive); in the test with CCRF-CEM it was 0.189 µM (active); in the test on NCI/ADR-RES it was 33.4 µM (inactive); with SK-MEL-28 it was 3.52 µM (inactive); with 786-0 it was 4.79 µM (inactive); with M14 it was 1.71 µM (inactive). For the same compound, the GI50 was 6.38 µM (inactive) in the test with T47D; 10.6 µM (inactive) in the test with RXF 393; 14.8 µM (inactive) in the test with PC-3; 9.38 µM (inactive) in the test on U-251; 11 µM (inactive) in the test on UACC-257; 1.73 µM (inactive) in the test on HCT-116.

Consider `CO/N=C(\C)c1cccc(Nc2nc3ccccc3c3occc23)c1`, for which the GI50 in the test on SNB-19 is 15.7 µM (inactive); with NCI-H226, 1.56 µM (inactive); in the test on SK-MEL-5 it was 14.8 µM (inactive); with CAKI-1 it was 10.8 µM (inactive); in the test on HT-29, 5.19 µM (inactive); with OVCAR-5 it was 13.8 µM (inactive). Also, the GI50 is 11.9 µM (inactive) with SR; 12.5 µM (inactive) in the test with CCRF-CEM; 14.4 µM (inactive) in the test with NCI/ADR-RES; 14.3 µM (inactive) in the test on SK-MEL-28; 13.8 µM (inactive) in the test with 786-0; 16.7 µM (inactive) in the test on M14. Also, the GI50 with T47D is 11.1 µM (inactive); in the test with RXF 393, 12.4 µM (inactive); with PC-3, 14.5 µM (inactive); with U-251, 15.9 µM (inactive); in the test with UACC-257, 0.0419 µM (active); in the test with HCT-116, 11.6 µM (inactive). Besides, in the test with HOP-92, the GI50 is 6.3 µM (inactive).

With `O=C(O)CO[C@@]12C#C/C=C\C#C[C@@H]3N(C(=O)Oc4ccccc4)c4ccccc4[C@]14O[C@@]34CCC2`, the GI50 is 37 µM (inactive) in the test on SNB-19; 33.5 µM (inactive) with NCI-H522; 71.9 µM (inactive) with NCI-H226; 28 µM (inactive) with SK-MEL-5; 38.7 µM (inactive) in the test with CAKI-1; 45.4 µM (inactive) in the test on HT-29. Also, the GI50 in the test on SR was 55.2 µM (inactive); in the test on CCRF-CEM, 29.7 µM (inactive); in the test with NCI/ADR-RES, 31.6 µM (inactive); in the test with SK-MEL-28, 52.8 µM (inactive); in the test with 786-0 it was 26.9 µM (inactive); in the test with M14, 41.1 µM (inactive). The GI50 was 10.3 µM (inactive) in the test with T47D; 26.2 µM (inactive) in the test on PC-3; 19.1 µM (inactive) in the test on U-251; 55.7 µM (inactive) in the test with UACC-257; 33.4 µM (inactive) in the test on HCT-116; 57.4 µM (inactive) in the test with HOP-92.

`Cc1ccc(Cc2n[nH]c(=O)[nH]2)cc1`: the GI50 in the test with SNB-19, in the test on NCI-H226, in the test on SK-MEL-5, in the test with CAKI-1, in the test with HT-29 and with OVCAR-5 was > 100 µM (inactive) in each case. For the same compound, the GI50 in the test on SR, in the test on CCRF-CEM, in the test with NCI/ADR-RES, with SK-MEL-28, in the test with 786-0 and in the test on M14 was > 100 µM (inactive) in each case. Moreover, the GI50 in the test on T47D, in the test on PC-3, in the test with U-251, with UACC-257, in the test with HCT-116 and with HOP-92 was > 100 µM (inactive) each time.

Consider `CC(C)(C)OC(=O)NCCC(N)=S`, for which the GI50 with SNB-19, in the test with NCI-H226, with SK-MEL-5, in the test on HT-29, with OVCAR-5 and with SR was > 100 µM (inactive) in each case. The GI50 with CCRF-CEM is 57.5 µM (inactive); with NCI/ADR-RES, > 100 µM (inactive); in the test on SK-MEL-28, > 100 µM (inactive); with 786-0, > 100 µM (inactive); in the test with M14, > 100 µM (inactive); with T47D it was > 100 µM (inactive). Besides, the GI50 with RXF 393, in the test on PC-3, with U-251, in the test on UACC-257, with HCT-116 and with HOP-92 was > 100 µM (inactive) in each case.

With `CCOC(=O)/C(=C\c1cn(C(C)=O)c2ccccc12)P(C)(=O)OCC` (stereo not given), the GI50 with SNB-19 was 49.9 µM (inactive); with NCI-H522, 19.2 µM (inactive); in the test on SK-MEL-5 it was 47.5 µM (inactive); in the test on CAKI-1, 46.2 µM (inactive); in the test on HT-29, 39.9 µM (inactive); with OVCAR-5, 68.7 µM (inactive). In addition, the GI50 in the test on SR was > 100 µM (inactive); with CCRF-CEM it was 57.3 µM (inactive); with NCI/ADR-RES, 20.4 µM (inactive); with SK-MEL-28 it was 64.7 µM (inactive); in the test on 786-0, 39.5 µM (inactive); in the test on M14, 16.7 µM (inactive). For the same compound, the GI50 with T47D is 37.2 µM (inactive); with PC-3, 52.5 µM (inactive); in the test on U-251 it was 40.1 µM (inactive); with HCT-116 it was 26.2 µM (inactive); with HOP-92, 17.2 µM (inactive).
